Measured values as given in patent US12528816B2, “Substituted imidazo [1,2-b] pyridazines and [1, 2, 4] triazolo [ 4,3-b] pyridazines as camkii inhibitors” (Cardurion Pharmaceuticals, INC., priority 2020, dated 2026).

Target: T1, human CaMKIIδ (Homo sapiens, UniProt Q13557)
T1 construct: Full-length, glutathione-S-transferase(GST)-tagged, human CaMKIIδ was purchased from Carna Biosciences; purchased Carna Biosciences (CaMKIIδ); Wako Pure Chemical Industries (calmodulin) 02-111
Assay: Evaluation of in vitro CaMKII inhibitory activity (binding assay, TR-FRET)
Details: human CaMKIIδ, TR-FRET binding assay; class symbols A/B/C; read-out: Act (CaMKII inhibitory activity, binding assay)
In short: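 Inhibitors, in eight concentrations of 4-fold dilution, were incubated 1 h at room temperature with a protein–fluorescent probe premix preformed 30 min on ice, containing calmodulin and terbium anti-GST antibody. Displacement read by TR-FRET in duplicate; IC50 by logistic fitting.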

Question: With CC[C@@H](Cn1cnnn1)Oc1cc(-c2ccc3ncc(-c4nccc(OC)c4C#N)n3n2)ccc1F [compound 476] as the molecule, how does the IC50 read?
Answer: < 10 nM

Question: For COc1ccnc(-c2cnc3ccc(-c4ccc(F)c(N(C)[C@@H](C)Cn5cnnn5)c4)nn23)c1C#N [compound 479], which IC50 is on record?
Answer: > 100 nM

Question: How did the IC50 turn out when COc1cc(F)cc(-c2cnc3ccc(-c4cccc(N[C@@H](C)Cn5cnnn5)n4)nn23)c1C#N [compound 480] was run?
Answer: < 10 nM

Question: How did the IC50 turn out when COc1cc(F)cc(-c2cnc3ccc(-c4cc(N[C@@H](C)Cn5cnnn5)ccn4)nn23)c1C#N [compound 481] was run?
Answer: < 10 nM

Question: How did the IC50 turn out when COc1cc(F)cc(-c2cnc3ccc(-c4cncc(N[C@@H](C)Cn5cnnn5)c4)nn23)c1C#N [compound 482] was run?
Answer: < 10 nM

Question: C[C@@H](Cn1cnnn1)Nc1ccnc(-c2ccc3ncc(-c4cc(F)ccc4C#N)n3n2)c1 [compound 483] was tested. Which IC50 did it give?
Answer: < 10 nM

Question: For C[C@@H](Cn1cnnn1)Nc1cncc(-c2ccc3ncc(-c4cc(F)ccc4C#N)n3n2)n1 [compound 484], which IC50 is on record?
Answer: < 10 nM

Question: Which IC50 does the source give for C[C@@H](Cn1cnnn1)Nc1cc(-c2ccc3ncc(-c4ncccc4C#N)n3n2)ccc1F [compound 485] here?
Answer: < 10 nM

Question: How did the IC50 turn out when COc1ccnc(-c2cnc3ccc(-c4cc(O[C@@H](C)Cn5cnnn5)ccn4)nn23)c1C#N [compound 486] was run?
Answer: 10 to 100 nM
